Results taken from ChEMBL document CHEMBL5625179, “2-Substituted quinazolines: Partial agonistic and antagonistic ligands of the constitutive androstane receptor (CAR)” (Eur J Med Chem, 2023).

What was measured:
Assay type in all cases: cell-based; call rule not given here
[1] = biological target: T1, Nuclear receptor subfamily 1 group I member 3 (Homo sapiens, UniProt Q14994); assay: Activation of human CAR LBD expressed in human HepG2 cells at 30 uM incubated for 24 hrs by dual luciferase reporter assay relative to CITCO; conditions: hepg2, 24 h
T1 sequence (Q14994 whole entry): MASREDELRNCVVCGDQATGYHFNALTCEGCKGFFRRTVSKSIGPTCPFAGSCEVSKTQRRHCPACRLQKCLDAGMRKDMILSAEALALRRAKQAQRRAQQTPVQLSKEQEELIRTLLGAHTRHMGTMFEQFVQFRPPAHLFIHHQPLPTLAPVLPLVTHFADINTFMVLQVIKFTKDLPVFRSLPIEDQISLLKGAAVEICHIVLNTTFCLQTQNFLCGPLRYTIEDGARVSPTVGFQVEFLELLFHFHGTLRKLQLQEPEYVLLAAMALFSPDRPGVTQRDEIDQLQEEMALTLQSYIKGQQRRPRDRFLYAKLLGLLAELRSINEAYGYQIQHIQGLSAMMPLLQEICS

[2] = biological target: T1, Nuclear receptor subfamily 1 group I member 3; assay: Activation of human CAR3 expressed in human HepG2 cells at 30 uM incubated for 24 hrs by dual luciferase gene reporter assay relative to CITCO; conditions: hepg2, 24 h
[3] = biological target: T1, Nuclear receptor subfamily 1 group I member 3; assay: Antagonist activity at human CAR LBD expressed in human HepG2 cells at 30 uM incubated for 24 hrs in presence of CITCO by dual luciferase reporter assay; conditions: hepg2, 24 h
[4] = biological target: T1, Nuclear receptor subfamily 1 group I member 3; assay: Antagonist activity at human CAR LBD expressed in human HepG2 cells incubated for 24 hrs in presence of CITCO by dual luciferase reporter assay
[5] = biological target: T1, Nuclear receptor subfamily 1 group I member 3; assay: Partial agonist activity at human CAR LBD (151 to 349 residues) expressed in HepG2 cells coexpressed with pGL5-luc luciferase measured after 1 to 4 hrs by LanthaScreen TR-FRET assay; conditions: for Activity: human, hepg2, time 1-4 hrs
[6] = biological target: T1, Nuclear receptor subfamily 1 group I member 3; assay: Antagonist activity at human CAR LBD (151 to 349 residues) expressed in HepG2 cells co-expressed with pGL5-luc luciferase assessed as reduction in CAR activation measured after 1 to 4 hrs by LanthaScreen TR-FRET assay; conditions: time 1-4 hrs
[7] = biological target: T1, Nuclear receptor subfamily 1 group I member 3; assay: Antagonist activity at human CAR LBD (151 to 349 residues) expressed in HepG2 cells co-expressed with pGL5-luc luciferase assessed as reduction in CAR activation measured after 1 to 4 hrs in presence of CITCO by LanthaScreen TR-FRET assay
[8] = biological target: T2, CAR (NR1I3) LBD (Homo sapiens, UniProt Q14994); assay: Antagonist activity at human CAR LBD expressed in human HepG2 cells at 30 uM incubated for 24 hrs by dual luciferase reporter assay relative to CITCO; design: scale not given: the % may be the effect or the level left; conditions: HepG2 cells expressing human CAR LBD, read-out: Activity
T2 sequence (Q14994 whole entry): T1 sequence (Q14994 whole entry)

[9] = biological target: T3, CAR3 (NR1I3) (Homo sapiens, UniProt Q14994); assay: Antagonist activity at human CAR3 expressed in human HepG2 cells at 30 uM incubated for 24 hrs by dual luciferase gene reporter assay relative to CITCO; design: scale not given: the % may be the effect or the level left; conditions: HepG2 cells expressing human CAR3, read-out: Activity
T3 sequence (Q14994 whole entry): T1 sequence (Q14994 whole entry)

[10] = biological target: T2, CAR (NR1I3) LBD; assay: Partial agonist activity at human CAR LBD expressed in human HepG2 cells at 30 uM incubated for 24 hrs by dual luciferase reporter assay relative to CITCO; conditions: HepG2 cells expressing human CAR LBD, read-out: Activity
[11] = biological target: T1, Nuclear receptor subfamily 1 group I member 3; assay: Partial agonist activity human CAR3 expressed in human HepG2 cells at 30 uM incubated for 24 hrs by dual luciferase gene reporter assay relative to CITCO; conditions: hepg2, 24 h

Question: With `COc1ccc(-c2nc(O)c3ccccc3n2)cc1OC` as the compound, how does the Activity [1] read?
Answer: The Activity was 3%.

Question: And the Activity [2]?
Answer: Its Activity is 28%.

Question: With `Cc1cccc(-c2nc(O)c3ccccc3n2)c1` as the compound, how does the Activity [1] read?
Answer: Its Activity is 5%.

Question: And the Activity [2]?
Answer: Its Activity is 34%.

Question: With `COc1nc(-c2cccc([N+](=O)[O-])c2)nc2ccccc12` as the compound, how does the Activity [1] read?
Answer: The Activity was -3%.

Question: And the Activity [2]?
Answer: The Activity was 15%.

Question: `Sc1nc(-c2ccc(Br)cc2)nc2ccccc12` was tested. Which Activity [3] did it give?
Answer: Its Activity is “Active”.

Question: What about the IC50 [4] of the same compound?
Answer: The IC50 was 30 µM.

Question: What about the Activity [5] of the same compound?
Answer: Its Activity is “Not Active”.

Question: What about the Activity [6] of the same compound?
Answer: Its Activity is “Not Active”.

Question: What about the IC50 [7] of the same compound?
Answer: Its IC50 is 95.7 µM.

Question: And the activity at 24 h, 30 µM [8]?
Answer: The activity at 24 h, 30 µM was 1%.

Question: And the activity at 24 h, 30 µM [9]?
Answer: Its activity at 24 h, 30 µM is 44%.

Question: How did the Activity [1] turn out when `Oc1nc(-c2ccc(F)cc2)nc2ccccc12` was run?
Answer: Its Activity is -6%.

Question: And the Activity [2]?
Answer: The Activity was 10%.

Question: `O=c1[nH]c(-c2ccc(Br)cc2)nc2ccccc12` was tested. Which Activity [1] did it give?
Answer: Its Activity is 3%.

Question: And the Activity [2]?
Answer: The Activity was 12%.

Question: `O=c1[nH]c(-c2ccc(C(F)(F)F)cc2)nc2ccccc12` was tested. Which Activity [1] did it give?
Answer: The Activity was -8%.

Question: What about the Activity [2] of the same compound?
Answer: Its Activity is 12%.

Question: With `COc1ccc(-c2nc3ccccc3c(=O)[nH]2)cc1` as the compound, how does the Activity [1] read?
Answer: The Activity was 3%.

Question: And the Activity [2]?
Answer: The Activity was 33%.

Question: How did the Activity [1] turn out when `O=c1[nH]c(-c2ccc3c(c2)OCO3)nc2ccccc12` was run?
Answer: Its Activity is -2%.

Question: What about the Activity [2] of the same compound?
Answer: The Activity was 3%.

Question: With `CC(C)(C)c1ccc(-c2nc3ccccc3c(=O)[nH]2)cc1` as the compound, how does the Activity [1] read?
Answer: The Activity was -5%.

Question: What about the Activity [2] of the same compound?
Answer: The Activity was 7%.

Question: Which Activity [1] does the source give for `O=[N+]([O-])c1cccc(-c2nc3ccccc3c(=S)[nH]2)c1` here?
Answer: The Activity was 1%.

Question: And the Activity [2]?
Answer: Its Activity is 11%.

Question: Which results are given for `COc1ccc(-c2nc3ccccc3c(=O)n2C)cc1OC`?
Answer: Activity [1]: -6%; Activity [2]: 15%

Question: How did the Activity [1] turn out when `COc1nc(-c2cccc(F)c2)nc2ccccc12` was run?
Answer: The Activity was -5%.

Question: And the Activity [2]?
Answer: The Activity was 5%.

Question: How did the Activity [1] turn out when `COc1ccc(-c2nc3ccccc3c(=S)[nH]2)cc1OC` was run?
Answer: Its Activity is -4%.

Question: What about the Activity [2] of the same compound?
Answer: The Activity was 13%.

Question: For `CC(C)(C)c1ccc(-c2nc3ccccc3c(=S)[nH]2)cc1`, which Activity [1] is on record?
Answer: The Activity was 1%.

Question: What about the Activity [2] of the same compound?
Answer: The Activity was 9%.

Question: How did the Activity [3] turn out when `Cn1c(-c2ccc(OC(F)(F)F)cc2)nc2ccccc2c1=O` was run?
Answer: The Activity was “Active”.

Question: What about the Activity [5] of the same compound?
Answer: Its Activity is “Not Active”.

Question: And the Activity [6]?
Answer: The Activity was “Not Active”.

Question: And the Activity [1]?
Answer: The Activity was -8%.

Question: And the Activity [2]?
Answer: The Activity was 22%.

Question: What does the source list for `O=c1[nH]c(-c2ccc(Cl)c(Cl)c2)nc2ccccc12`?
Answer: Activity [1]: -6%; Activity [2]: 9%

Question: What does the source list for `S=c1[nH]c(-c2cccc(Cl)c2)nc2ccccc12`?
Answer: Activity [1]: 6%; Activity [2]: 15%

Question: For `CSc1nc(-c2cccc(C)c2)nc2ccccc12`, which Activity [3] is on record?
Answer: Its Activity is “Active”.

Question: What about the EC50 [5] of the same compound?
Answer: The EC50 was 10.6 µM.

Question: And the activity at 24 h, 30 µM [10]?
Answer: The activity at 24 h, 30 µM was 36.3%.

Question: And the Activity [11]?
Answer: The Activity was 44%.

Question: Which results are given for `COc1nc(-c2ccc(OC(F)(F)F)cc2)nc2ccccc12`?
Answer: Activity [1]: -3%; Activity [2]: 5%

Question: Which results are given for `Cn1c(-c2ccc(F)cc2)nc2ccccc2c1=O`?
Answer: Activity [1]: -5%; Activity [2]: 13%

Question: `Cc1cccc(-c2nc3ccccc3c(=O)n2C)c1` was tested. Which Activity [1] did it give?
Answer: Its Activity is -3%.

Question: And the Activity [2]?
Answer: The Activity was 13%.
